Laboratory results reported in PMC6584507 (Scientific Reports, 2019).
≈ marks a conversion by molar mass, not a printed value.

Columns and labels:
hTSLP/hTSLPR interaction = molecular target: T1, hTSLP/hTSLPR interaction (Homo sapiens, UniProt Q969D9); assay: ELISA of hTSLP/hTSLPR interaction (FLAG-hTSLP, hTSLPR-His); type: binding; details: for inhibition at 1000 µM / inhibition at 300 µM: read-out: % inhibition (hTSLP-inhibitory activity by ELISA);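 on all read-outs here: His-tagged hTSLPR captured on Ni-NTA plates, compounds plus FLAG-hTSLP incubated 18 h at 4 °C, bound ligand detected with HRP anti-FLAG, OD 450 nm relative to control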
T1 construct: human TSLP28–159 with thrombin cleavage site at C-terminus; thrombin cleavage site (C); 8xHis (from vector pAB-bee-8xHis) (C, cleaved yes); made in house; host or cells: Trichoplusia ni High-Five cells, baculovirus (secreted)

[1] = Kinetic aqueous solubility; type: physicochemical; details: 0.1 M potassium phosphate buffer, kinetic from dmso stock, PBS / phosphate buffer pH 7.4
Experimental: In brief, 10 mM stock solution of tested compounds was prepared in DMSO. 25 μL of the stock solution was added to a 1-mL uniprep vial containing 475 μL of 0.1 M potassium phosphate buffer (pH 7.4), and was shaken at 800 rpm for 90 min at room temperature. Following shaking, the mixture was filtered by slowly pressing the upper tube of the 1 mL Mini-Uniprep^TM filter (PTFE membrane, 0.45 μm). 250 μL of the filtrate solution was then transferred to a HPLC vial containing equal volume of acetonitrile.

[2] = tested on: pSTAT5 in TSLP-stimulated HMC-1 cells; assay: Western blot analysis of STAT5 phosphorylation; type: cell-based, human; details: TSLP 20 ng/mL for 2 h
Experimental: (§1) HMC-1 cells were obtained from the Department of Food Technology and Inflammatory Disease Research Center (Hoseo University, Asan, Chungnam, Korea). Cells were cultured in Iscove’s modified Dulbecco’s medium (IMDM; Hyclone Laboratories Inc, USA) supplemented with 10% FBS and 1% Penicillin-streptomycin (PS; Gibco Industries Inc, USA) and incubated at 37 °C under humidified atmosphere of 95% air and 5% CO2. Recombinant hTSLP was purchased from R&D Systems (Minneapolis, USA).
[…] Activated cells were lysed and separated by 10% sodium dodecyl sulfate-polyacrylamide gel electrophoresis (SDS-PAGE). After electrophoresis, proteins were transferred to nitrocellulose membranes. The membranes were blocked, incubated with primary antibodies (1:700 dilution in PBS with 0.05% Tween-20), and developed using peroxidase-conjugated secondary antibodies (1:3000 dilution in PBS with 0.05% Tween-20). Proteins were visualized by enhanced chemiluminescence (Amersham Bioseciences, Piscataway, NJ, USA) according to the manufacturer’s instructions.

[3] = tested on: STAT5 phosphorylation in hTSLP-stimulated HMC-1 cells; assay: STAT5 assay (STAT5 phosphorylation, flow cytometry); type: cell-based, human
Experimental: as §1
Intracellular phospho-STAT5 (pSTAT5) staining method was based on the protocol obtained from the laboratory of Susan Kaech, Department of Immunobiology, Yale University School of Medicine (New Haven, Connecticut, USA). Briefly, HMC-1 cells were seeded in 96-well U-bottom plate at a density of 1 × 10^7 cells/mL and stimulated with 100 ng/mL recombinant hTSLP alone or with 1 for 30 min. After stimulation, cells were fixed with BD Cytofix/Cytoperm (BD Biosciences, USA) solution for 10 min. Fixed cells were then permeabilized with ice-cold methanol for 30 min, and intracellular pSTAT5 was stained with Alexa Fluor 647 mouse anti-STAT5 (pY694; BD Biosciences, USA) (1:10 dilution in FACS buffer) for 30 min. Stained cells were further fixed with BD Cytofix/Cytoperm solution for 10 min and re-suspended in FACS buffer for flow cytometry analysis. Cells were analyzed by a BD LSR Fortessa Flow cytometry (BD Biosciences, USA). FACS data were analyzed using FlowJo software Ver 9. 7. 6 (Tree Star Inc., USA).

T1 sequence (Q969D9 28-159): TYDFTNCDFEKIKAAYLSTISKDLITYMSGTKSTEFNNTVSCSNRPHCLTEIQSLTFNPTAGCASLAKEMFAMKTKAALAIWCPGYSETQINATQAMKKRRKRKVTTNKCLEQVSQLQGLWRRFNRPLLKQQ

Structure (SMILES)	inhibition at 1000 µM (hTSLP/hTSLPR interaction; 1 mM) [%]	inhibition at 300 µM (hTSLP/hTSLPR interaction; 0.3 mM) [%]	other results
COc1c(O)cc2oc(-c3ccccc3)cc(=O)c2c1O [Compound 1c, oroxylin A]	11.6 ± 6.3	–	% inhibition (hTSLP-inhibitory activity by ELISA) (hTSLP/hTSLPR interaction; 0.3 mM): <5%
COc1c(O)ccc(O)c1-c1cc(=O)c2c(O)cc(O)c(OC)c2o1 [Compound 1e, viscidulin III]	26.3	12.8 ± 0.6	–
O=C1CC(c2c(O)cccc2O)Oc2cc(O)cc(O)c21 (centres unmarked) [Compound 1f, 2′,5,6′,7-tetrahydroflavanone]	8.4 ± 5.8	14 ± 3.8	–
O=C1CC(c2ccc(O)cc2)Oc2cc(O)cc(O)c21 (centres unmarked) [Compound 7b, 5,7-Dihydroxy-2-(4-hydroxyphenyl)chroman-4-one]	–	–	hTSLP-inhibitory activity by ELISA, comparison in words (hTSLP/hTSLPR interaction): weaker; solubility kinetic at 90 min [1]: 505 µM (≈ 137 µg/mL)
O=C1CC(c2cccc(-c3ccc(O)cc3)c2)Oc2cc(O)cc(O)c21 (centres unmarked) [Compound 11a, 5,7-Dihydroxy-2-(4′-hydroxy-[1,1′-biphenyl]-3-yl)chroman-4-one]	–	–	IC50 (hTSLP/hTSLPR interaction): 370 µM; inhibition of STAT5 phosphorylation, Western blot (in words) ([2]; even at 0.01 μM, HMC-1 cells): strongly inhibited; solubility kinetic at 90 min [1]: 66 µM (≈ 23 µg/mL)
O=c1cc(-c2ccccc2)oc2cc(O)ccc12 [Compound 3a]	23.3 ± 6.8	16.4 ± 2.7	–
O=C1CC(c2ccccc2)Oc2cc(O)cc(O)c21 (centres unmarked) [Compound 7a, 5,7-Dihydroxy-2-phenylchroman-4-one]	–	–	hTSLP-inhibitory activity by ELISA, comparison in words (hTSLP/hTSLPR interaction): weaker; solubility kinetic at 90 min [1]: 111 µM (≈ 28.4 µg/mL)
O=c1cc(-c2ccc(O)cc2)oc2cc(O)cc(O)c12 [Compound 6b, 5,7-Dihydroxy-2-(4-hydroxyphenyl)-4H-chromen-4-one]	–	–	solubility kinetic at 90 min [1]: 486 µM (≈ 131 µg/mL)
COc1cccc(O)c1-c1cc(=O)c2c(O)c(OC)c(OC)c(OC)c2o1 [Compound 1d, skullcapflavone II]	< 5	< 5	–
COc1cc2oc(-c3ccccc3)cc(=O)c2c(OC)c1OC [Compound 2]	12 ± 2.8	< 5	–
O=c1cc(-c2ccccc2)oc2cc(O)cc(O)c12 [Compound 6a, 5,7-Dihydroxy-2-phenyl-4H-chromen-4-one]	–	–	solubility kinetic at 90 min [1]: 30 µM (≈ 7.63 µg/mL)
COc1c(O)cc2oc(-c3ccccc3)cc(=O)c2c1O [KUP-119, oroxylin A]	–	–	% inhibition (hTSLP-inhibitory activity by ELISA) (hTSLP/hTSLPR interaction; 0.3 mM): 1.7 ± 9.0%; % inhibition (hTSLP-inhibitory activity by ELISA) (hTSLP/hTSLPR interaction; 1 mM): 11.6 ± 6.3%
O=C(O)[C@H]1O[C@@H](Oc2cc3oc(-c4ccccc4)cc(=O)c3c(O)c2O)[C@H](O)[C@@H](O)[C@@H]1O [Compound 1a, baicalin]	19.9 ± 0.2	12.1 ± 1.8	–
O=C(O)[C@H]1O[C@@H](Oc2cc3oc(-c4ccccc4)cc(=O)c3c(O)c2O)[C@H](O)[C@@H](O)[C@@H]1O [KUP-040, baicalin]	–	–	STAT5 phosphorylation % ([3]; 3 µM): 69.7%; STAT5 phosphorylation % ([3]; 10 μM): 68.8%
COc1c(O)cc(O)c2c(=O)cc(-c3ccccc3)oc12 [Compound 1b, wogonin]	< 5	< 5	–

The next lines start with results.

inhibition at 1000 µM (hTSLP/hTSLPR interaction; 1 mM) [%]	inhibition at 300 µM (hTSLP/hTSLPR interaction; 0.3 mM) [%]	Structure (SMILES)	other results
–	> 50	O=c1cc(-c2cccc(-c3ccc(O)cc3)c2)oc2cc(O)cc(O)c12 [Compound 10a, 5,7-Dihydroxy-2-(4′-hydroxy-[1,1′-biphenyl]-3-yl)-4H-chromen-4-one]	–
–	> 50	O=c1cc(-c2cccc(-c3ccccc3)c2)oc2cc(O)c(O)cc12 [Compound 10e, 2-([1,1′-Biphenyl]-3-yl)-6,7-dihydroxy-4H-chromen-4-one]	IC50 (hTSLP/hTSLPR interaction): 177 µM; inhibition of STAT5 phosphorylation, Western blot (in words) ([2]; HMC-1 cells pretreated): stronger than compound 1
38.7 ± 5.3	22.2 ± 2.5	O=c1cc(-c2ccccc2)oc2ccc(O)cc12 [Compound 3b]	–
16.8 ± 2	24.1 ± 5.4	O=c1cc(-c2ccccc2)oc2cccc(O)c12 [Compound 3c]	–
–	> 50	O=c1cc(-c2cccc(-c3ccc(O)cc3)c2)oc2cc(O)c(O)cc12 [Compound 10g, 6,7-Dihydroxy-2-(4′-hydroxy-[1,1′-biphenyl]-3-yl)-4H-chromen-4-one]	IC50 (hTSLP/hTSLPR interaction): 210 µM; inhibition of STAT5 phosphorylation, Western blot (in words) ([2]; HMC-1 cells pretreated): stronger than compound 1
–	> 50	O=c1cc(-c2cccc(-c3ccc([N+](=O)[O-])cc3)c2)oc2cc(O)c(O)cc12 [Compound 10h, 6,7-Dihydroxy-2-(4′-nitro-[1,1′-biphenyl]-3-yl)-4H-chromen-4-one]	–
